Entries after “also recorded” stand apart in the source; their conditions may differ.

T1 sequence (P53341 whole entry): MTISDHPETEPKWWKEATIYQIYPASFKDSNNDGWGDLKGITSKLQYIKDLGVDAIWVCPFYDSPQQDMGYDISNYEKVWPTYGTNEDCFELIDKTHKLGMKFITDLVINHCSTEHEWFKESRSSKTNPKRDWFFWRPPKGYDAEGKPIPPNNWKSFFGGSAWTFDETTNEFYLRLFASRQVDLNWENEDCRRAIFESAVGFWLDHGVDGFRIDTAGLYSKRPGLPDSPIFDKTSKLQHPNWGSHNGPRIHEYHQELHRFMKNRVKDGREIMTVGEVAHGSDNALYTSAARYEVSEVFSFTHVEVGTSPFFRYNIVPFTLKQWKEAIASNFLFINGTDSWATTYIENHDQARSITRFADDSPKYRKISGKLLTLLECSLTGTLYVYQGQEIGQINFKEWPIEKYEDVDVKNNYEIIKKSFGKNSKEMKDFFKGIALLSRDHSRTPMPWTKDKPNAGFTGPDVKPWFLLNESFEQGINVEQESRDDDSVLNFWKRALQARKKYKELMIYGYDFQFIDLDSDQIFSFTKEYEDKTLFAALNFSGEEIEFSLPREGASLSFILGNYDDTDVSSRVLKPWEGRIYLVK

The first test addresses T1, α-glucosidase (Saccharomyces cerevisiae, UniProt P53341). Nature of the test: α-glucosidase inhibition assay.
Conditions: not given
A word on the IC50: it is the point on the concentration scale where inhibition reaches its midpoint. For the compound `COc1ccc2nc3cc(Cl)ccc3c(SCc3cn(Cc4ccc(Cl)cc4Cl)nn3)c2c1` [Compound 7l, 9-((1-(2,4-dichlorobenzyl)-1H-1,2,3-triazol-4-yl)methylthio)-6-chloro-2-methoxyacridine], 229.2 ± 1.3 µM corresponded to half-maximal inhibition (IC50).
On the same count and under the same terms, the same measure for `COc1cccc(Cn2cc(CSc3c4ccc(Cl)cc4nc4ccc(OC)cc34)nn2)c1` [Compound 7b, 9-((1-(3-methoxybenzyl)-1H-1,2,3-triazol-4-yl)methylthio)-6-chloro-2-methoxyacridine]: more than 750 µM; for `COc1ccc2nc3cc(Cl)ccc3c(SCc3cn(Cc4cccc(Cl)c4Cl)nn3)c2c1` [Compound 7k, 9-((1-(2,3-dichlorobenzyl)-1H-1,2,3-triazol-4-yl)methylthio)-6-chloro-2-methoxyacridine]: more than 750 µM; for `COc1ccc2nc3cc(Cl)ccc3c(SCc3cn(Cc4ccc(F)cc4)nn3)c2c1` [Compound 7h, 9-((1-(4-fluorobenzyl)-1H-1,2,3-triazol-4-yl)methylthio)-6-chloro-2-methoxyacridine]: 98 ± 0.3 µM.
On the same count and under the same terms, the same measure for `COc1ccc2nc3cc(Cl)ccc3c(SCc3cn(Cc4ccccc4Br)nn3)c2c1` [Compound 7j, 9-((1-(2-bromobenzyl)-1H-1,2,3-triazol-4-yl)methylthio)-6-chloro-2-methoxyacridine]: 302.8 ± 0.6 µM; for `COc1ccc2nc3cc(Cl)ccc3c(SCc3cn(Cc4ccccc4Cl)nn3)c2c1` [Compound 7i, 9-((1-(2-chlorobenzyl)-1H-1,2,3-triazol-4-yl)methylthio) -6-chloro-2-methoxyacridine]: more than 750 µM.
Still for that read-out and setting: then `COc1ccc2nc3cc(Cl)ccc3c(SCc3cn(Cc4ccccc4)nn3)c2c1` [Compound 7a, 9-((1-benzyl-1H-1,2,3-triazol-4-yl)methylthio)-6-chloro-2-methoxyacridine], with 169.1 ± 0.9 µM; and `COc1ccc2nc3cc(Cl)ccc3c(SCc3cn(Cc4ccc(C)cc4)nn3)c2c1` [Compound 7f, 6-chloro-2-methoxy-9-(((1-(4-methylbenzyl)-1H-1,2,3-triazol-4-yl)methyl)thio) acridine], with 123.1 ± 0.8 µM.
`COc1ccc2nc3cc(Cl)ccc3c(SCc3cn(Cc4cccc(C)c4)nn3)c2c1` [Compound 7e, 6-chloro-2-methoxy-9-(((1-(3-methylbenzyl)-1H-1,2,3-triazol-4-yl)methyl)thio)acridine]: the IC50 is more than 750 µM.
Still for that read-out and setting: the same measure for `COc1ccc2nc3cc(Cl)ccc3c(SCc3cn(Cc4cccc(F)c4)nn3)c2c1` [Compound 7g, 9-((1-(3-fluorobenzyl) -1H-1,2,3-triazol-4-yl)methylthio) -6-chloro-2-methoxyacridine]: 164 ± 0.6 µM; for `COc1ccc2nc3cc(Cl)ccc3c(SCc3cn(Cc4ccccc4C)nn3)c2c1` [Compound 7d, 6-chloro-2-methoxy-9-(((1-(2-methylbenzyl)-1H-1,2,3-triazol-4yl)methyl)thio)acridine]: 482 ± 0.2 µM.
Still for that read-out and setting: then `COc1ccc2nc3cc(Cl)ccc3c(SCc3cn(Cc4ccc([N+](=O)[O-])cc4)nn3)c2c1` [Compound 7n, 9-((1-(4-nitrobenzyl)-1H-1,2,3-triazol-4-yl)methylthio) -6-chloro-2-methoxyacridine], with more than 750 µM.
`COc1ccc2nc3cc(Cl)ccc3c(SCc3cn(Cc4ccccc4[N+](=O)[O-])nn3)c2c1` [Compound 7m, 9-((1-(2-nitrobenzyl)-1H-1,2,3-triazol-4-yl)methylthio)-6-chloro-2methoxyacridine] came in with an IC50 of more than 750 µM.
The compound `COc1ccc(Cn2cc(CSc3c4ccc(Cl)cc4nc4ccc(OC)cc34)nn2)cc1` [Compound 7c, 9-((1-(4-methoxybenzyl)-1H-1,2,3-triazol-4-yl)methylthio)-6-chloro-2-methoxyacridine] came in with an IC50 of more than 750 µM.

A further test concerns the target T1, α-glucosidase. The experiment in a line: biochemical.
Conditions: not given
What is called Ki is a measure of affinity in units of concentration, obtained from inhibition or displacement. Read a low Ki as a stronger hold on the target. In the case of `COc1ccc2nc3cc(Cl)ccc3c(SCc3cn(Cc4ccc(F)cc4)nn3)c2c1` [Compound 7h, 9-((1-(4-fluorobenzyl)-1H-1,2,3-triazol-4-yl)methylthio)-6-chloro-2-methoxyacridine], the Ki worked out at 98 µM.

The target of another test is T1, α-glucosidase.
Experiment: not given
The settings on record: Lineweaver–Burk plot.
Take `COc1ccc2nc3cc(Cl)ccc3c(SCc3cn(Cc4ccc(F)cc4)nn3)c2c1` [Compound 7h, 9-((1-(4-fluorobenzyl)-1H-1,2,3-triazol-4-yl)methylthio)-6-chloro-2-methoxyacridine]: the mode of inhibition entry is on record as “competitive inhibitor; also recorded: competitive inhibition”.
